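Method: 48-hour compound exposure of cells in 96-well plates, five concentrations, linear interpolation of endpoints. TGI is the concentration that stops growth completely.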
Key:
Assay in all cases: inhibition of tumour cell growth, NCI panel, 48 h
NCI-H23 lung = test system: NCI-H23 lung
CCRF-CEM leukemia = test system: CCRF-CEM leukemia
KM20L2 colon = test system: KM20L2 colon
SN12C renal = test system: SN12C renal
SNB-75 CNS = test system: SNB-75 CNS
UO-31 renal = test system: UO-31 renal
UACC-62 melanoma = test system: UACC-62 melanoma
SK-MEL-5 melanoma = test system: SK-MEL-5 melanoma
HT29 colon = test system: HT29 colon
ACHN renal = test system: ACHN renal
NCI-H522 lung = test system: NCI-H522 lung
HCT-116 colon = test system: HCT-116 colon
OVCAR-8 ovarian = test system: OVCAR-8 ovarian
LOX IMVI melanoma = test system: LOX IMVI melanoma
UACC-257 melanoma = test system: UACC-257 melanoma
COLO 205 colon = test system: COLO 205 colon
HOP-18 NSCLC = test system: HOP-18 NSCLC
OVCAR-4 ovarian = test system: OVCAR-4 ovarian
HOP-62 NSCLC = test system: HOP-62 NSCLC
DMS 114 small cell lung = test system: DMS 114 small cell lung
786-0 renal = test system: 786-0 renal
RPMI-8226 leukemia = test system: RPMI-8226 leukemia
SK-OV-3 ovarian = test system: SK-OV-3 ovarian
A549 NSCLC = test system: A549 NSCLC
K-562 leukemia = test system: K-562 leukemia
RXF 393 renal = test system: RXF 393 renal
TK-10 renal = test system: TK-10 renal
EKVX NSCLC = test system: EKVX NSCLC
M14 melanoma = test system: M14 melanoma
SR leukemia = test system: SR leukemia
SK-MEL-28 melanoma = test system: SK-MEL-28 melanoma
SNB-78 CNS = test system: SNB-78 CNS
SF-295 CNS = test system: SF-295 CNS
NCI-H460 lung = test system: NCI-H460 lung
SK-MEL-2 melanoma = test system: SK-MEL-2 melanoma
SW-620 colon = test system: SW-620 colon
HL-60(TB) leukemia = test system: HL-60(TB) leukemia
HCT-15 colon = test system: HCT-15 colon
MALME-3M melanoma = test system: MALME-3M melanoma
SNB-19 CNS = test system: SNB-19 CNS
XF 498 CNS = test system: XF 498 CNS
NCI-H226 lung = test system: NCI-H226 lung
U251 CNS = test system: U251 CNS
LXFL 529 NSCLC = test system: LXFL 529 NSCLC
M19-MEL melanoma = test system: M19-MEL melanoma
MOLT-4 leukemia = test system: MOLT-4 leukemia
SF-268 CNS = test system: SF-268 CNS
DMS 273 small cell lung = test system: DMS 273 small cell lung
DLD-1 colon = test system: DLD-1 colon
OVCAR-5 ovarian = test system: OVCAR-5 ovarian
IGROV1 ovarian = test system: IGROV1 ovarian
SF-539 CNS = test system: SF-539 CNS
HOP-92 NSCLC = test system: HOP-92 NSCLC
CAKI-1 renal = test system: CAKI-1 renal
KM12 colon = test system: KM12 colon
OVCAR-3 ovarian = test system: OVCAR-3 ovarian

O=C(CSc1nnc(-c2ccc(N=Cc3ccc(Cl)cc3)cc2)o1)Nc1ccc([N+](=O)[O-])cc1
TGI (NCI-H23 lung): 38.1 µM
TGI (CCRF-CEM leukemia): 47.6 µM
TGI (KM20L2 colon): 73.5 µM
TGI (SN12C renal): 37.7 µM
TGI (SNB-75 CNS): 58.1 µM
TGI (UO-31 renal): 37.2 µM
TGI (UACC-62 melanoma): 42.4 µM
TGI (SK-MEL-5 melanoma): 67.9 µM
TGI (HT29 colon): 35.9 µM
TGI (ACHN renal): 25.7 µM
TGI (NCI-H522 lung): 38.3 µM
TGI (HCT-116 colon): 9.43 µM
TGI (OVCAR-8 ovarian): > 100 µM
TGI (LOX IMVI melanoma): 22.4 µM
TGI (UACC-257 melanoma): 44.3 µM
TGI (COLO 205 colon): > 100 µM
TGI (HOP-18 NSCLC): > 100 µM
TGI (OVCAR-4 ovarian): 84.9 µM
TGI (HOP-62 NSCLC): > 100 µM
TGI (DMS 114 small cell lung): 32.9 µM
TGI (786-0 renal): 36.1 µM
TGI (RPMI-8226 leukemia): 8.01 µM
TGI (SK-OV-3 ovarian): > 100 µM
TGI (A549 NSCLC): > 100 µM
TGI (K-562 leukemia): 97.1 µM
TGI (RXF 393 renal): 34.6 µM
TGI (TK-10 renal): > 100 µM
TGI (EKVX NSCLC): > 100 µM
TGI (M14 melanoma): 42 µM
TGI (SR leukemia): 48.7 µM
TGI (SK-MEL-28 melanoma): 33.7 µM
TGI (SNB-78 CNS): 84.4 µM
TGI (SF-295 CNS): 79.4 µM
TGI (NCI-H460 lung): > 100 µM
TGI (SK-MEL-2 melanoma): 60.8 µM
TGI (SW-620 colon): 36.3 µM
TGI (HL-60(TB) leukemia): 63.9 µM
TGI (HCT-15 colon): 32.6 µM
TGI (MALME-3M melanoma): > 100 µM
TGI (SNB-19 CNS): 33.7 µM
TGI (XF 498 CNS): 47.1 µM
TGI (NCI-H226 lung): 48.6 µM
TGI (U251 CNS): 37.1 µM
TGI (LXFL 529 NSCLC): 35.9 µM
TGI (M19-MEL melanoma): 36.9 µM
TGI (MOLT-4 leukemia): 36.7 µM
TGI (SF-268 CNS): 46.1 µM
TGI (DMS 273 small cell lung): 30.4 µM

O=[N+]([O-])c1ccc([N+]2=NC(c3ccccc3)=NN(c3ccccc3)C2)cc1
TGI (NCI-H23 lung): > 100 µM
TGI (CCRF-CEM leukemia): > 100 µM
TGI (KM20L2 colon): > 100 µM
TGI (SN12C renal): > 100 µM
TGI (SNB-75 CNS): > 100 µM
TGI (UO-31 renal): > 100 µM
TGI (UACC-62 melanoma): > 100 µM
TGI (SK-MEL-5 melanoma): > 100 µM
TGI (DLD-1 colon): > 100 µM
TGI (HT29 colon): > 100 µM
TGI (ACHN renal): > 100 µM
TGI (OVCAR-5 ovarian): > 100 µM
TGI (NCI-H522 lung): > 100 µM
TGI (HCT-116 colon): > 100 µM
TGI (OVCAR-8 ovarian): > 100 µM
TGI (LOX IMVI melanoma): > 100 µM
TGI (UACC-257 melanoma): > 100 µM
TGI (COLO 205 colon): > 100 µM
TGI (HOP-18 NSCLC): > 100 µM
TGI (OVCAR-4 ovarian): > 100 µM
TGI (HOP-62 NSCLC): 47.9 µM
TGI (IGROV1 ovarian): > 100 µM
TGI (DMS 114 small cell lung): 94.1 µM
TGI (786-0 renal): > 100 µM
TGI (RPMI-8226 leukemia): > 100 µM
TGI (SK-OV-3 ovarian): > 100 µM
TGI (A549 NSCLC): > 100 µM
TGI (K-562 leukemia): > 100 µM
TGI (RXF 393 renal): > 100 µM
TGI (SF-539 CNS): > 100 µM
TGI (HOP-92 NSCLC): > 100 µM
TGI (TK-10 renal): > 100 µM
TGI (CAKI-1 renal): > 100 µM
TGI (M14 melanoma): > 100 µM
TGI (SR leukemia): > 100 µM
TGI (SK-MEL-28 melanoma): > 100 µM
TGI (SNB-78 CNS): > 100 µM
TGI (SF-295 CNS): > 100 µM
TGI (NCI-H460 lung): > 100 µM
TGI (SK-MEL-2 melanoma): 92.4 µM
TGI (SW-620 colon): > 100 µM
TGI (KM12 colon): > 100 µM
TGI (HL-60(TB) leukemia): > 100 µM
TGI (HCT-15 colon): > 100 µM
TGI (MALME-3M melanoma): > 100 µM
TGI (SNB-19 CNS): > 100 µM
TGI (XF 498 CNS): 58.9 µM
TGI (NCI-H226 lung): > 100 µM
TGI (OVCAR-3 ovarian): > 100 µM
TGI (U251 CNS): > 100 µM
TGI (LXFL 529 NSCLC): > 100 µM
TGI (M19-MEL melanoma): > 100 µM
TGI (MOLT-4 leukemia): > 100 µM
TGI (SF-268 CNS): > 100 µM
TGI (DMS 273 small cell lung): > 100 µM

— PubChem BioAssay (NCI)
